Source: US20260365732A1, “METHODS OF TREATING CANCER IN SUBJECTS WITH PRIOR IMMUNE CHECKPOINT INHIBITOR EXPOSURE” (Curis, Inc., priority 2023, published 2026)

Experiments:
[1] = Study Compound 1-101 (safety, drug exposure, biologic activity and clinical efficacy at 200 mg BID); format: in vivo, human
Text: Three patients with AML or MDS will be enrolled at the designated dose. If none of the first 3 patients experience a dose-limiting toxicity during the first cycle, patients may be enrolled into the next higher dose level. If 1 patient out of the first 3 experiences a dose-limiting toxicity, the dose level may be expanded with an additional 3 patients.

[2] = tested on: bone marrow (BM) blasts; test: Clinical study of emavusertib (Compound 1) on bone marrow (BM) blasts in AML / hrMDS patients with vs without prior immune checkpoint inhibitor exposure (FIG. 1A, FIG. 1B); format: in vivo, human
Text: FIG. 1A is a graph showing the results of a clinical study for the efficacy of emavusertib (Compound 1) administration on reducing bone marrow (BM) blasts in patients with blood cancer. Blasts are immature white blood cells that are usually found in small numbers in healthy bone marrow. High levels of blasts circulating in the blood are associated with cancer. This clinical study measured the change in blast levels before and after receiving Compound 1 treatment. Here, the relative change in blast levels before and after Compound 1 is compared between patients who had previously received immune checkpoint inhibitors in prior treatment and patients who were naïve to immune checkpoint inhibitors. The comparison groups each contain at least 5 high risk myelodysplastic syndrome (hrMDS) patients and 1 acute myeloid leukemia (AML) patient.
FIG. 1B is a graph showing baseline and best post-treatment blast levels of the subjects in FIG. 1A. […] Each patient is shaded according to their diagnosis.
To support the development of effective treatment regimens with Compound 1, a study was conducted to monitor bone marrow (BM) samples obtained from AML and high risk MDS patients with different prior histories of treatment. […] The present disclosure relates to methods of treating cancer with Compound 1 and other IRAK4 inhibitors or degraders, wherein the subject has a history of treatment with an immune checkpoint inhibitor.
This is a Phase 1, open-label dose escalation and cohort expansion study of Compound 1 as a monotherapy in patients with AML or MDS and in combination with AZA in treatment-naïve, adult patients with AML or hrMDS or in combination with VEN in patients with relapsed/refractory AML or hrMDS, after first line therapy.

## Cc1cc(-c2nc(C(=O)Nc3cc4oc(N5CCOCC5)nc4nc3N3CC[C@@H](O)C3)co2)ccn1 [Compound 1, emavusertib]
[1]
  biologic activity and clinical efficacy: signs of biologic activity and clinical efficacy
  safety of starting dose level: safe
[2]; AML and high risk MDS patients, history of treatment with an immune checkpoint inhibitor vs no prior exposure
  rate of response, as evidenced by reduced BM blast counts in hematology: higher rate of response
[2]; patients with prior immune checkpoint inhibitors (magrolimab, ipilimumab, or nivolumab + ipilimumab) vs not previously exposed, each group at least 5 hrMDS and 1 AML patient, FIG. 1A
  relative change in blast levels before and after Compound 1: significant reduction in blasts
[2]; prior immune checkpoint inhibitor exposure compared to no prior exposure, FIG. 1B
  change in bone marrow blast counts from baseline to best post-baseline: higher decreases in bone marrow blast counts
[2]; prior immune checkpoint inhibitor exposure vs without exposure, FIG. 1A
  baseline vs best post-baseline bone marrow blasts counts: significant difference
